Results as given in paper PMC8558867, “Development of BromoTag: A “Bump-and-Hole”–PROTAC System to Induce Potent, Rapid, and Selective Degradation of Tagged Target Proteins” (Journal of Medicinal Chemistry, 2021).

Legend:
BromoTag-Brd2 [1] = assay: Dose–response degradation assay (western blot, 6 h) in heterozygous BromoTag-Brd2 HEK293 cells; format: cell-based, human; details: for pDC50 (Ab: Brd^4BD2 L387A) / pDC50 (Ab: BromoTag-Brd2) / DC50: 6 h; for pDC50 (Ab: Brd^4BD2 L387A) / pDC50 (Ab: BromoTag-Brd2): eight-point 10 μM to 1 nM, mean ±S.E. of two repeats; for DC50: read-out: DC50 of BromoTag-Brd2 degradation (DC50, 6h), single stereoisomers
[2] = tested on: untagged Brd2, Brd3, Brd4; assay: Off-target degradation of endogenous BET proteins (western blot) in heterozygous BromoTag-Brd2 HEK293 cells; format: cell-based, human; details: 1 nM to 10 μM, 6 h, diastereomeric mixtures
Description: To establish the BromoTag platform and support the degrader structure–activity relationships (SARs) to identify the best compound, we sought a practical and simple system that enables us to best optimize not only the degradation efficiency but also the selectivity profile of our degraders. To this end, the endogenous BET family protein Brd2 was chosen as a model target due to the availability of a well-established antibody for Brd2 detection, and the expression of a single protein isoform detected as a single band in the western blot.[24] Because Brd2 contains endogenous bromodomains and is degraded by 1 and other BET PROTACs, we reasoned that a heterozygous knock-in cell line allows us to monitor simultaneously both on-target degradation (BromoTagged-Brd2) and off-target degradation (untagged Brd2) using the same antibody. Together with the potential off-target degradation of the other BET proteins Brd3 and Brd4, this system thus enables us to best monitor protein degradation selectivity. We therefore decided to add the BromoTag at the N-terminus of the endogenous Brd2 gene locus using CRISPR knock-in methodologies, thereby yielding a chimeric protein bearing three bromodomains (the exogenous BromoTag, in addition to the endogenous Brd2^BD1 and Brd2^BD2). Hereafter, we refer to on-target activity as the degradation of BromoTag-Brd2 and off-target activity as any degradation of either untagged Brd2 or endogenous Brd3 or Brd4.
All dose–response degradation assays were performed on the genotype-verified heterozygous BromoTag-Brd2 HEK293 cell line. Heterozygous BromoTag-Brd2 HEK293 cells were plated at a density of 5 × 10^5 cells per well of a six-well healthy plate a day before initiation of the titration experiment. PROTAC compounds were dissolved in DMSO at a concentration of 10 mM; from these stock concentrations, PROTAC compounds were diluted to appropriate concentrations using DMSO in the range of 10 μM to 1 nM. The compounds were then added to 2 mL of DMEM (Invitrogen, Carlsbad, CA, USA) supplemented with 10% (v/v) FBS (Thermo Fisher, Waltham, MA, USA) and 1% (v/v) penicillin/streptomycin (pen/strep) (#15140122, Thermo Fisher, Waltham, MA, USA) and added to the cells while initiating the experiment. Control compounds such as MZ1 and cis-MZ1 were similarly dissolved in DMSO to an appropriate concentration. All titration experiments were performed for a total of 6 h prior to being harvested and were kept at 37 °C, 5% CO2, and 95% humidity once treatment was applied until right before harvesting. The cells were washed twice with PBS before being harvested.
All cells were harvested on ice with RIPA lysis and extraction buffer (Thermo Fisher Scientific, 89901) supplemented with protease inhibitor cocktail (Merck, 11697498001) and Benzonase Nuclease (Sigma, E1014) before being stored at −20 °C prior to use. Total protein quantity was determined using the BCA protein assay (#23225, Pierce, Rockford, Illinois). The protein concentration was determined using the BCA assay (Thermo Fisher Scientific, 23225). The samples were then prepared and loaded onto NuPAGE 4–12% bis–tris Midi gels (Thermo Fisher Scientific, WG1403A), followed by the transfer of proteins onto nitrocellulose membranes (EMD Millipore). The membranes were blocked for 1 h prior to incubation with the primary antibodies using 5% Milk TBST. The membranes were probed for Brd2 (Abcam, Ab139690, 1:1000), Brd3 (Abcam, Ab50818, 1:4000), Brd4 (Abcam, Ab128874, 1:1000), or our polyclonal Brd4^BD2 L387A antibody. Following overnight incubation with the primary antibodies at 4 °C, the membranes were incubated with secondary antibodies (anti-rabbit, Abcam AB216773, 1:5000 or anti-mouse, Abcam AB216774, 1:5000) and hFABTM rhodamine anti-tubulin antibody (Biorad, 12004165, 1:10,000) for 1 h and then imaged with a Bio-Rad imager (LI-COR Biosciences). All western blots were analyzed for band intensities using Image Lab from Bio-Rad (LI-COR, Biosciences). […]

BromoTag-Brd2 [3] = assay: Time course degradation assay (western blot, 0–36 h) in heterozygous BromoTag-Brd2 HEK293 cells; format: cell-based, human; details: 500 nM 47, 1 μM 48, over 36 h
Procedure: Heterozygous BromoTag-Brd2 HEK293 cells were plated at a density of 5 × 10^5 cells per well of a six-well healthy plate a day prior to initiating the time course assay. […] The time point range was between 0 and 36 h. Treatment was applied in a staggered fashion to enable all time points to be harvested at the same time.
All cells were harvested on ice with RIPA lysis and extraction buffer (Thermo Fisher Scientific, 89901) supplemented with protease inhibitor cocktail (Merck, 11697498001) and Benzonase Nuclease (Sigma, E1014) before being stored at −20 °C prior to use. Total protein quantity was determined using the BCA protein assay (#23225, Pierce, Rockford, Illinois). The protein concentration was determined using the BCA assay (Thermo Fisher Scientific, 23225). The samples were then prepared and loaded onto NuPAGE 4–12% bis–tris Midi gels (Thermo Fisher Scientific, WG1403A), followed by the transfer of proteins onto nitrocellulose membranes (EMD Millipore). The membranes were blocked for 1 h prior to incubation with the primary antibodies using 5% Milk TBST. […] All western blots were analyzed for band intensities using Image Lab from Bio-Rad (LI-COR, Biosciences). The data extracted from these blots were then plotted and analyzed using Prism (v. 8.2.0, GraphPad).

VHL (VCB protein) = target: T1, VHL (VCB protein) (Homo sapiens, UniProt P40337); assay: FP competitive binding assay, binary binding; details: compound alone; mean ±S.E.M., N = 4; read-out: binary affinity to VHL Kd
T1 construct: N-terminally His6-tagged VHL (54–213); His6 (N, cleaved yes); made in house; host or cells: E. coli

VHL with Brd4^BD2 L387A = target: T2, VHL with Brd4^BD2 L387A (Homo sapiens, UniProt O60885+P40337, L387A); assay: FP competitive binding assay, ternary complex binding (compound preincubated with Brd4^BD2 L387A); details: for α (FP binding): cooperativity, Kd binary/Kd ternary, supplementary CSV; for Kd: preincubated with Brd4^BD2 L387A, mean ±S.E.M., N = 4, read-out: ternary binding affinity Kd; for cooperativity (α): α = Kd binary/Kd ternary
T2 construct: N-terminally His6-tagged VHL (54–213); His6 (N, cleaved yes); made in house; host or cells: E. coli

22RV1 cells = assay: CellTiter-Glo 2.0 cell viability assay, 22RV1; format: cell-based, human; details: Homo sapiens; 22RV1, 48 Hours, mean ±S.E.M, N = 2; read-out: pEC50 (cell viability) (converted)

## Cc1ncsc1-c1ccc(CNC(=O)[C@@H]2C[C@@H](O)CN2C(=O)[C@@H](NC(=O)COCCOCCOCCOC(=O)[C@H](C)[C@@H]2N=C(c3ccc(Cl)cc3)c3c(sc(C)c3C)-n3c(C)nnc32)C(C)(C)C)cc1 (relative stereo) [ME-OMZ1 (22), (S)-13-((2S,4R)-4-Hydroxy-2-((4-(4-methylthiazol-5-yl)benzyl)carbamoyl)pyrrolidine-1-carbonyl)-14,14-dimethyl-11-oxo-3,6,9-trioxa-12-azapentadecyl (R*)-2-((S*)-4-(4-chlorophenyl)-2,3,9-trimethyl-6H-thieno[3,2-f][1,2,4]triazolo[4,3-a][1,4]diazepin-6-yl)propanoate]
BromoTag-Brd2 [1]; supplementary CSV
  pDmax (%) (Ab: Brd4BD2 L387A): 94%
  pDmax (%) (Ab:Brd2): 96%
[2]
  off-target degradation of untagged Brd2 or the other endogenous BET proteins: induced undesired off-target degradation

## CC[C@@H](C(=O)OCCOCCCOCC(=O)N[C@H](C(=O)N1C[C@H](O)C[C@H]1C(=O)N[C@@H](C)c1ccc(-c2scnc2C)cc1)C(C)(C)C)[C@@H]1N=C(c2ccc(Cl)cc2)c2c(sc(C)c2C)-n2c(C)nnc21 [AGB2 (47), 2-(3-(2-(((S)-1-((2S,4R)-4-Hydroxy-2-(((S)-1-(4-(4-methylthiazol-5-yl)phenyl)ethyl)carbamoyl)pyrrolidin-1-yl)-3,3-dimethyl-1-oxobutan-2-yl)amino)-2-oxoethoxy)propoxy)ethyl (R)-2-((S)-4-(4-chlorophenyl)-2,3,9-trimethyl-6H-thieno[3,2-f][1,2,4]triazolo[4,3-a][1,4]diazepin-6-yl)butanoate]
BromoTag-Brd2 [1]
  pDC50 (Ab: Brd^4BD2 L387A): 9.0 ± 0.4
  pDC50 (Ab: BromoTag-Brd2): 8.6 ± 0.2
  DC50: 0.001 to 0.003 µM
BromoTag-Brd2 [3]
  extent of BromoTag-Brd2 degradation in the time course experiment: near-complete target degradation
VHL (VCB protein)
  Kd: 0.045 µM
VHL with Brd4^BD2 L387A
  α (FP binding): 3.6
  Kd: 0.012 µM
  cooperativity (α): 3.6

## CC[C@@H](C(=O)NCCOCCOCCOCC(=O)N[C@H](C(=O)N1C[C@H](O)C[C@H]1C(=O)NCc1ccc(-c2scnc2C)cc1)C(C)(C)C)[C@@H]1N=C(c2ccc(Cl)cc2)c2c(sc(C)c2C)-n2c(C)nnc21 [AGB3 (48), (2S,4R)-1-((2S,17R)-2-(tert-Butyl)-17-((S)-4-(4-chlorophenyl)-2,3,9-trimethyl-6H-thieno[3,2-f][1,2,4]triazolo[4,3-a][1,4]diazepin-6-yl)-4,16-dioxo-6,9,12-trioxa-3,15-diazanonadecanoyl)-4-hydroxy-N-(4-(4-methylthiazol-5-yl)benzyl)pyrrolidine-2-carboxamide]
BromoTag-Brd2 [1]
  pDC50 (Ab: Brd^4BD2 L387A): 6.5 ± 0.3
  pDC50 (Ab: BromoTag-Brd2): 6.7 ± 0.1
  DC50: 0.21 to 0.29 µM
VHL (VCB protein)
  Kd: 0.102 µM
VHL with Brd4^BD2 L387A
  α (FP binding): 10.9
  Kd: 0.009 µM
  cooperativity (α): 10.9

## Cc1ncsc1-c1ccc(CNC(=O)[C@@H]2C[C@H](O)CN2C(=O)[C@@H](NC(=O)COCCOCCOCCNC(=O)C[C@@H]2N=C(c3ccc(Cl)cc3)c3c(sc(C)c3C)-n3c(C)nnc32)C(C)(C)C)cc1 [cis-MZ1]
22RV1 cells
  EC50: > 10 µM
